Measurements taken from ChEMBL document CHEMBL1131971, “Identification and initial structure-activity relationships of a novel non-peptide quinolone GnRH receptor antagonist” (Bioorg Med Chem Lett, 1999).

The compounds below were run against T1, Gonadotropin-releasing hormone receptor (Rattus norvegicus, UniProt P30969) (assay: Inhibition of [125I]buserelin to GnRH receptor in rat pituitary membranes.). Details: not given.
T1 sequence (P30969 whole entry): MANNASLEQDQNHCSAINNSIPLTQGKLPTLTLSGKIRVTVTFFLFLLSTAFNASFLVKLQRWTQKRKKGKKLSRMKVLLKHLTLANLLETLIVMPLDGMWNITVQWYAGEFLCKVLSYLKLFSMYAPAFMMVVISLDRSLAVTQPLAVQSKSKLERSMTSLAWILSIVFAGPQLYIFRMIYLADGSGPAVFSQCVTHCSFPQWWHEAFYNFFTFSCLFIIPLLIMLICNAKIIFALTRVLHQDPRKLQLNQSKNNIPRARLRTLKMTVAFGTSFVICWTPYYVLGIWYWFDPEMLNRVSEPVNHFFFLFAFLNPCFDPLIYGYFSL
Type: cell membranes, Membrane

SMILES | IC50
Cc1cc(C)cc(-c2c(OCCC3CCCCN3C)c3ccc(Cl)cc3[nH]c2=O)c1 (stereo not drawn) | 200 nM
Cc1cc(C)cc(-c2c(O)nc3cc(Cl)ccc3c2OCC2CCN(C)C2)c1 (stereo not drawn) | 500 nM
Cc1cc(C)cc(-c2c(OCCCN3CCCCC3)c3ccc(Cl)cc3[nH]c2=O)c1 | 7500 nM
Cc1cc(C)cc(-c2c(O)nc3cc(Cl)ccc3c2OCC2CCCNC2)c1 (stereo not drawn) | 500 nM
Cc1cc(C)cc(-c2c(O)nc3cc(Cl)ccc3c2OC2CCCN(C)CC2)c1 (stereo not drawn) | 300 nM
CN1CCCCC1COc1c(-c2ccccc2)c(=O)[nH]c2cc(Cl)ccc12 (stereo not drawn) | 9000 nM
CN1CCCCC(Oc2c(-c3ccccc3)c(O)nc3cc(Cl)ccc23)C1 (stereo not drawn) | 7000 nM
CN1CCCC(COc2c(-c3ccccc3)c(O)nc3cc(Cl)ccc23)C1 (stereo not drawn) | 4000 nM
Cc1cc(C)cc(-c2c(OCCC3CCCCN3C)c3cc([N+](=O)[O-])c(Cl)cc3[nH]c2=O)c1 (stereo not drawn) | 32 nM
Cc1cc(C)cc(-c2c(O)nc3cc(Cl)ccc3c2OCC2CN(C)CCO2)c1 (stereo not drawn) | 1400 nM
Cc1cc(C)cc(-c2c(OCC3CCCN(C)C3)c3ccc(Cl)cc3[nH]c2=O)c1 (stereo not drawn) | 300 nM
Cc1cc(C)cc(-c2c(O)nc3cc(Cl)ccc3c2OCC2CCCCN2C)c1 (stereo not drawn) | 4000 nM
Cc1cc(C)cc(-c2c(O)nc3cc([N+](=O)[O-])ccc3c2OCC2CCCN(C)C2)c1 (stereo not drawn) | 1400 nM
Oc1nc2cc(Cl)ccc2c(OCc2ccccn2)c1-c1ccccc1 | 10000 nM
Cc1cc(C)cc(-c2c(O)nc3cc(Cl)ccc3c2OCCC2CCCN2C)c1 (stereo not drawn) | 200 nM
Cc1cc(C)cc(-c2c(OCCC3CCCCN3C)c3ccc(C(F)(F)F)cc3[nH]c2=O)c1 (stereo not drawn) | 100 nM
CN(C)CCCOc1c(-c2ccccc2)c(O)nc2cc(Cl)ccc12 | 9000 nM
Cc1cc(C)cc(-c2c(O)nc3cc(Cl)ccc3c2OCC(C)CN(C)C)c1 (stereo not drawn) | 6300 nM
Cc1cc(C)cc(-c2c(OC3CCN(C)CC3)c3ccc(Cl)cc3[nH]c2=O)c1 | 1300 nM
Cc1cc(C)cc(-c2c(O)nc3cc(Cl)ccc3c2OCC2CCCCN(C)C2)c1 (stereo not drawn) | 1300 nM
Cc1cc(C)cc(-c2c(OCC3CCCN(C)C3)c3ccc(C)cc3[nH]c2=O)c1 (stereo not drawn) | 3900 nM
Cc1cc(C)cc(-c2c(OCCC3CCCCN3C)c3ccc(Br)cc3[nH]c2=O)c1 (stereo not drawn) | 150 nM

The compounds below were run against T2, Gonadotropin-releasing hormone receptor (Rattus norvegicus) (UniProt P30969) (assay: Inhibitory activity at GnRH receptor in rat pituitary membranes.). Details: concentration not given here.
T2 sequence (whole entry): T1 sequence (P30969 whole entry)
Type: cell membranes
Set-up: concentration or dose not given beside the values

SMILES | inhibition
Oc1nc2cc(Cl)ccc2c(OCc2ccc3ccccc3n2)c1-c1ccccc1 | < 50%
COC(=O)c1ccc2c(OCC3CCCN(C)C3)c(-c3cc(C)cc(C)c3)c(O)nc2c1 (stereo not drawn) | < 50%
Cc1cc(C)cc(-c2c(O)nc3cc(Cl)ccc3c2OCC2CCNCC2)c1 | < 50%
CN(C)CCOc1c(-c2ccccc2)c(O)nc2cc(Cl)ccc12 | < 50%
Oc1nc2cc(Cl)ccc2c(OCc2cccnc2)c1-c1ccccc1 | < 50%
Cc1cc(C)cc(-c2c(O)nc3c(Cl)cccc3c2OCC2CCCN(C)C2)c1 (stereo not drawn) | < 50%
Cc1cc(C)cc(-c2c(O)nc3cccc(Cl)c3c2OCC2CCCN(C)C2)c1 (stereo not drawn) | < 50%
O=C1c2ccccc2C(=O)N1CCCOc1c(-c2ccccc2)c(O)nc2cc(Cl)ccc12 | < 50%
NCCCOc1c(-c2ccccc2)c(O)nc2cc(Cl)ccc12 | < 50%
Cc1cc(C)cc(-c2c(O)nc3ccc(Cl)cc3c2OCC2CCCN(C)C2)c1 (stereo not drawn) | < 50%
Cc1cc(C)cc(-c2c(O)nc3cc(F)ccc3c2OCC2CCCN(C)C2)c1 (stereo not drawn) | < 50%
Oc1nc2cc(Cl)ccc2c(OCc2ccccc2)c1-c1ccccc1 | < 50%
Oc1nc2cc(Cl)ccc2c(OCc2ccncc2)c1-c1ccccc1 | < 50%
Cc1cc(C)cc(-c2c(O)nc3ccc([N+](=O)[O-])cc3c2OCC2CCCN(C)C2)c1 (stereo not drawn) | < 50%
COc1ccc2nc(O)c(-c3cc(C)cc(C)c3)c(OCC3CCCN(C)C3)c2c1 (stereo not drawn) | < 50%
Cc1cc(C)cc(-c2c(O)nc3ccc(C)cc3c2OCC2CCCN(C)C2)c1 (stereo not drawn) | < 50%
